Measurements from patent publication US7888487B2, “Pyrazole derivative, medicinal composition containing the same, medicinal use thereof and intermediate in producing the same” (Kissei Pharmaceutical Co., Ltd., priority 2002, dated 2011).

Key:
human SMINT = target: T1, human SMINT (Homo sapiens, UniProt Q2M3M2); experiment: Confirmatory test for substrate specificity of human SMINT (inhibition assay of methyl-α-D-glucopyranoside uptake activity with natural sugars); format: cell-based; conditions: COS-7 cells transiently expressing human SMINT; 1 mM α-MG, 1 hour, 37° C.
T1 construct: expressed in transfected cells; host or cells: COS-7 cells (RIKEN CELL BANK RCB0539), transient lipofection of SMINT/pME18S-FL
T1 sequence (Q2M3M2 1-681): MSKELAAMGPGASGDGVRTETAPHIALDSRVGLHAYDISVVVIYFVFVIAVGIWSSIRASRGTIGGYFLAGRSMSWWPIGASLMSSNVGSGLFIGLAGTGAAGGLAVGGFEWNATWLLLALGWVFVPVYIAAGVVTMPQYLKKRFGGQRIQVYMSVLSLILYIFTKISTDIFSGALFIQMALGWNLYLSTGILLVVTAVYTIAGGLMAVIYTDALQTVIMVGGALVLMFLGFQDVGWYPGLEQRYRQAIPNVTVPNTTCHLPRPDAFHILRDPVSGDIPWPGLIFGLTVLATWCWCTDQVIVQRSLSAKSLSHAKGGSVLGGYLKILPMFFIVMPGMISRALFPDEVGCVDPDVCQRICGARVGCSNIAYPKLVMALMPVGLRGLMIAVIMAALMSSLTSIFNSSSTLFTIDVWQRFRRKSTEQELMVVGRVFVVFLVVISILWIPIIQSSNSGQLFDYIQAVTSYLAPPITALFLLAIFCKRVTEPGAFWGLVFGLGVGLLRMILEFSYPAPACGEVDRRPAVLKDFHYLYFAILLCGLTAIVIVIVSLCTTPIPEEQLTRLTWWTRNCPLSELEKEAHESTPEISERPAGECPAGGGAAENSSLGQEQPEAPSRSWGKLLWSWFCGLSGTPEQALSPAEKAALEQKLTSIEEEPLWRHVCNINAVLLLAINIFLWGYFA
From the text: Confirmatory Test for Substrate Specificity of Human SMINT
(§1) 1) Preparation of Cells Transiently Expressing Human SMINT
Human SMINT-carrying expression plasmid SMINT/pME18S-FL (denotation of bacteria: Escherichia coli/SMINT2010324), which was deposited with NITE Patent Microorganisms Depositary on Mar. 12, 2002, was transfected to COS-7 cells (RIKEN CELL BANK RCB0539) by lipofection method. LIPOFECTAMINE PLUS reagent (Invitrogen) was used as the lipofection reagent. A day before the lipofection, COS-7 cells were suspended in D-MEM medium (Invitrogen) at 6×10^6 cells per 1 mL, and dispensed 50 μL per well of 96-well plate. The lipofection was performed by the following methods. For each well, 0.1 μg of the plasmid was diluted with 10 μL of D-MEM, added 0.5 μL of PLUS reagent, mixed gently, and kept stand for 15 minutes to prepare Plasmid Dilute Solution. For each well, 0.5 μL of LIPOFECTAMINE reagent was diluted with 10 μL of D-MEM to prepare LIPOFECTAMINE Dilute Solution. The Plasmid Dilute Solution was mixed with an equal volume of the LIPOFECTAMINE Dilute Solution, kept stand for 15 minutes, dispensed 20 μL per well of cell culture medium, and incubated at 37° C. under 5% CO2 for 5 hours. Then D-MEM containing 16.7% fetal bovine serum (Sanko Jun-yaku) was dispensed 100 μL per well. […]
(§2) To Uptake Buffer consisting of 140 mM sodium chloride, 2 mM potassium chloride, 1 mM calcium chloride, 1 mM magnesium chloride, 10 mM 2-[2-(2-hydroxyethyl)-1-piperazinyl]-ethanesulfonic acid, and 5 mM tris(hydroxymethyl)aminomethane (pH 7.4), was added methyl-α-D-glucopyranoside (α-MG) composed of its non-radiolabeled form and ^14C-labeled form at 1 mM as the final concentration. […] To the cell lysates were added 150 μL per well of MicroScint 40 (Packard), mixed well, and the radioactivity was measured in a microscintillation counter TOPCOUNT (Packard). α-MG uptake by the cells treated with each concentration of test compounds was calculated as relative activity to control group, which is set as 100% uptake after deducting the basal uptake. […]

[1] = target: T2, human 1,5-anhydroglucitol/fructose/mannose transporter (human SMINT) (Homo sapiens, UniProt Q2M3M2); experiment: Confirmatory test for inhibitory activity on human 1,5-anhydroglucitol/fructose/mannose transporter (inhibition assay of methyl-α-D-glucopyranoside uptake activity); format: cell-based; conditions: COS-7 cells transiently expressing human SMINT; uptake of 1 mM methyl-α-D-glucopyranoside (α-MG), 1 hour, 37° C.; logit plot analysis
T2 construct: expressed in transfected cells; host or cells: COS-7 cells (RIKEN CELL BANK RCB0539), transient lipofection of SMINT/pME18S-FL
T2 sequence (Q2M3M2 1-681): T1 sequence (Q2M3M2 1-681)
Description: Human SMINT-carrying expression plasmid SMINT/pME18S-FL (denotation of bacteria: Escherichia coli/SMINT2010324), which was deposited with NITE Patent Microorganisms Depositary on Mar. 12, 2002, was transfected to COS-7 cells (RIKEN CELL BANK RCB0539) by lipofection method. LIPOFECTAMINE PLUS reagent (Invitrogen) was used as the lipofection reagent. A day before the lipofection, COS-7 cells were suspended in D-MEM medium (Invitrogen) at 6×10^6 cells per 1 mL, and dispensed 50 μL per well of 96-well plate. The lipofection was performed by the following methods. For each well, 0.1 μg of the plasmid was diluted with 10 μL of D-MEM, added 0.5 μL of PLUS reagent, mixed gently, and kept stand for 15 minutes to prepare Plasmid Dilute Solution. For each well, 0.5 μL of LIPOFECTAMINE reagent was diluted with 10 μL of D-MEM to prepare LIPOFECTAMINE Dilute Solution. The Plasmid Dilute Solution was mixed with an equal volume of the LIPOFECTAMINE Dilute Solution, kept stand for 15 minutes, dispensed 20 μL per well of cell culture medium, and incubated at 37° C. under 5% CO2 for 5 hours. Then D-MEM containing 16.7% fetal bovine serum (Sanko Jun-yaku) was dispensed 100 μL per well. After 2 days culture, the cells were used for the inhibition assay of methyl-α-D-glucopyranoside uptake activity.
Confirmatory Test for Inhibitory Activity on Human 1,5-anhydroglucitol/fructose/mannose Transporter
as §1
The cells were prepared according to the method described in 1) of Test Example 2.
2) Inhibition Assay of methyl-α-D-glucopyranoside Uptake Activity
as §2, with “concentration. For measurement of basal uptake, Basal Buffer was prepared by the addition of 140 mM choline chloride instead of sodium chloride of the Uptake Buffer. In order to determine the substrate specificity among natural sugars, natural sugars were solubilized in distilled water, diluted with distilled water into appropriate concentrations, and added to the Uptake Buffer to prepare Assay Buffer.” for “concentration.”

Row | recognition as substrate by SMINT (inhibition of α-MG uptake, FIG. 2) (human SMINT) | IC50 [1] [nM] | Compound
1 | recognizes | – | OC[C@H]1OC[C@H](O)[C@@H](O)[C@@H]1O [1,5-anhydroglucitol]
2 | recognizes | – | O=C(CO)[C@@H](O)[C@H](O)[C@H](O)CO [fructose]
3 | not | – | O=C[C@H](O)[C@@H](O)[C@@H](O)[C@H](O)CO [galactose]

The next lines start with the molecule.

Row | Compound | recognition as substrate by SMINT (inhibition of α-MG uptake, FIG. 2) (human SMINT) | IC50 [1] [nM]
4 | COc1ccc(Cc2c(O[C@@H]3O[C@H](CO)[C@@H](O)[C@H](O)[C@H]3O)nn(C(C)C)c2-c2ccc(OC)cc2)cc1 [Example 1] | – | 92
5 | CC(C)c1c(Cc2ccccc2)c(O[C@@H]2O[C@H](CO)[C@@H](O)[C@H](O)[C@H]2O)nn1C(C)C [Example 87, 4-Benzyl-3-(β-D-glucopyranosyloxy)-1,5-diisopropyl-1H-pyrazole] | – | 444
6 | COc1ccc(Cc2c(O[C@@H]3O[C@H](CO)[C@@H](O)[C@H](O)[C@H]3O)nn(-c3ccccc3F)c2C(C)C)cc1 [Example 99] | – | 245
7 | COc1ccc(Cc2c(O[C@@H]3O[C@H](CO)[C@@H](O)[C@H](O)[C@H]3O)nn(C(C)C)c2-c2ccc3c(c2)OCCO3)cc1 [Example 119] | – | 296
